Columns and labels:
late watergrass = assay: Test Example 1: herbicidal activity, application before weed generation under submerged conditions (Table 16, symbol A); format: in vivo, late watergrass (Echinochloa oryzicola); conditions: amount of applied herbicide 320 g/ha
Outline: (§1)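 Alluvial soil was flooded to 4 cm depth, weed seeds were sown mixed and 2.5-leaf rice seedlings were transplanted. On sowing day, the compound's emulsion, diluted in water to a set dose, was applied to the water surface. Plants grew at 25–30 °C and were scored 0–5 after three weeks.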

Japanese bulrush = assay: Test Example 1: herbicidal activity, application before weed generation under submerged conditions (Table 16, symbol B); format: in vivo, Japanese bulrush (Schoenoplectus juncoides); conditions: amount of applied herbicide 320 g/ha
Outline: as §1

oval-leafed pondweed = assay: Test Example 1: herbicidal activity, application before weed generation under submerged conditions (Table 16, symbol C); format: in vivo, oval-leafed pondweed (Monochoria vaginalis); conditions: amount of applied herbicide 320 g/ha
Outline: as §1

barnyard grass [1] = assay: Test Example 3: herbicidal effect by foliage application, Wagner pot (Table 18, symbol H); format: in vivo, barnyard grass (Echinochloa crus-galli); conditions: 320 g/ha
Outline: (§2)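 Plants were sown in alluvial soil held under 0.1–0.5 cm standing water and grown 14 days in a greenhouse at 25–30 °C. An emulsifiable formulation, water-diluted to the set dose, was then sprayed onto the foliage, and effects were scored three weeks later using previously defined criteria.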

Chinese sprangletop = assay: Test Example 3: herbicidal effect by foliage application, Wagner pot (Table 18, symbol D); format: in vivo, chinese sprangletop (Leptochloa chinensis); conditions: 320 g/ha
Outline: as §2

rice flat sedge = assay: Test Example 3: herbicidal effect by foliage application, Wagner pot (Table 18, symbol E); format: in vivo, rice flat sedge (Cyperus iria); conditions: 320 g/ha
Outline: as §2

southern crabgrass [2] = assay: Test Example 4: herbicidal effect by soil treatment (Table 19, symbol F); format: in vivo, southern crabgrass (Digitaria ciliaris); conditions: amount of applied herbicide 320 g/ha
Outline: (§3)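 Soil-surface application: an emulsion agent diluted with water to the predetermined dose is sprayed uniformly over seeds lying under roughly 1.5 cm of sterilized diluvial soil. Boxes stay in a greenhouse at 25° C. to 30° C. Three weeks later, each species is graded on previously defined criteria.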

green foxtail [3] = assay: Test Example 4: herbicidal effect by soil treatment (Table 19, symbol G); format: in vivo, green foxtail (Setaria viridis); conditions: amount of applied herbicide 320 g/ha
Outline: as §3

barnyard grass [4] = assay: Test Example 4: herbicidal effect by soil treatment (Table 19, symbol H); format: in vivo, barnyard grass (Echinochloa crus-galli); conditions: amount of applied herbicide 320 g/ha
Outline: as §3

wild oat [5] = assay: Test Example 4: herbicidal effect by soil treatment (Table 19, symbol I); format: in vivo, wild oat (Avena fatua); conditions: amount of applied herbicide 320 g/ha
Outline: as §3

blackgrass [6] = assay: Test Example 4: herbicidal effect by soil treatment (Table 19, symbol J); format: in vivo, blackgrass (Alopecurus myosuroides); conditions: amount of applied herbicide 320 g/ha
Outline: as §3

Italian ryegrass [7] = assay: Test Example 4: herbicidal effect by soil treatment (Table 19, symbol K); format: in vivo, Italian ryegrass (Lolium multiflorum); conditions: amount of applied herbicide 320 g/ha
Outline: as §3

windgrass [8] = assay: Test Example 4: herbicidal effect by soil treatment (Table 19, symbol L); format: in vivo, windgrass (Apera spica-venti); conditions: amount of applied herbicide 320 g/ha
Outline: as §3

velvetleaf [9] = assay: Test Example 4: herbicidal effect by soil treatment (Table 19, symbol M); format: in vivo, velvetleaf (Abutilon theophrasti); conditions: amount of applied herbicide 320 g/ha
Outline: as §3

redroot pigweed [10] = assay: Test Example 4: herbicidal effect by soil treatment (Table 19, symbol N); format: in vivo, redroot pigweed (Amaranthus retroflexus); conditions: amount of applied herbicide 320 g/ha
Outline: as §3

lambsquarters [11] = assay: Test Example 4: herbicidal effect by soil treatment (Table 19, symbol O); format: in vivo, lambsquarters (Chenopodium album); conditions: amount of applied herbicide 320 g/ha
Outline: as §3

chickweed [12] = assay: Test Example 4: herbicidal effect by soil treatment (Table 19, symbol P); format: in vivo, common chickweed (Stellaria media); conditions: amount of applied herbicide 320 g/ha
Outline: as §3

persian speedwell [13] = assay: Test Example 4: herbicidal effect by soil treatment (Table 19, symbol R); format: in vivo, Persian speedwell (Veronica persica); conditions: amount of applied herbicide 320 g/ha
Outline: as §3

southern crabgrass [14] = assay: Test Example 5: herbicidal effect by foliage application, plastic box (Table 20, symbol F); format: in vivo, southern crabgrass (Digitaria ciliaris); conditions: amount of applied herbicide 320 g/ha; foliage application after 14-day growth; evaluated three weeks after application
Outline: (§4)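 Sow seeds spot-wise in sterilized diluvial soil; cover with ~1.5 cm soil. Grow 14 days in greenhouse, 25° C. to 30° C. Spray foliage with emulsion diluted to predetermined amount. Rate effect after 3 weeks.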

green foxtail [15] = assay: Test Example 5: herbicidal effect by foliage application, plastic box (Table 20, symbol G); format: in vivo, green foxtail (Setaria viridis); conditions: amount of applied herbicide 320 g/ha; foliage application after 14-day growth; evaluated three weeks after application
Outline: as §4

barnyard grass [16] = assay: Test Example 5: herbicidal effect by foliage application, plastic box (Table 20, symbol H); format: in vivo, barnyard grass (Echinochloa crus-galli); conditions: amount of applied herbicide 320 g/ha; foliage application after 14-day growth; evaluated three weeks after application
Outline: as §4

wild oat [17] = assay: Test Example 5: herbicidal effect by foliage application, plastic box (Table 20, symbol I); format: in vivo, wild oat (Avena fatua); conditions: amount of applied herbicide 320 g/ha; foliage application after 14-day growth; evaluated three weeks after application
Outline: as §4

blackgrass [18] = assay: Test Example 5: herbicidal effect by foliage application, plastic box (Table 20, symbol J); format: in vivo, blackgrass (Alopecurus myosuroides); conditions: amount of applied herbicide 320 g/ha; foliage application after 14-day growth; evaluated three weeks after application
Outline: as §4

Italian ryegrass [19] = assay: Test Example 5: herbicidal effect by foliage application, plastic box (Table 20, symbol K); format: in vivo, Italian ryegrass (Lolium multiflorum); conditions: amount of applied herbicide 320 g/ha; foliage application after 14-day growth; evaluated three weeks after application
Outline: as §4

windgrass [20] = assay: Test Example 5: herbicidal effect by foliage application, plastic box (Table 20, symbol L); format: in vivo, windgrass (Apera spica-venti); conditions: amount of applied herbicide 320 g/ha; foliage application after 14-day growth; evaluated three weeks after application
Outline: as §4

velvetleaf [21] = assay: Test Example 5: herbicidal effect by foliage application, plastic box (Table 20, symbol M); format: in vivo, velvetleaf (Abutilon theophrasti); conditions: amount of applied herbicide 320 g/ha; foliage application after 14-day growth; evaluated three weeks after application
Outline: as §4

redroot pigweed [22] = assay: Test Example 5: herbicidal effect by foliage application, plastic box (Table 20, symbol N); format: in vivo, redroot pigweed (Amaranthus retroflexus); conditions: amount of applied herbicide 320 g/ha; foliage application after 14-day growth; evaluated three weeks after application
Outline: as §4

lambsquarters [23] = assay: Test Example 5: herbicidal effect by foliage application, plastic box (Table 20, symbol O); format: in vivo, lambsquarters (Chenopodium album); conditions: amount of applied herbicide 320 g/ha; foliage application after 14-day growth; evaluated three weeks after application
Outline: as §4

chickweed [24] = assay: Test Example 5: herbicidal effect by foliage application, plastic box (Table 20, symbol P); format: in vivo, common chickweed (Stellaria media); conditions: amount of applied herbicide 320 g/ha; foliage application after 14-day growth; evaluated three weeks after application
Outline: as §4

persian speedwell [25] = assay: Test Example 5: herbicidal effect by foliage application, plastic box (Table 20, symbol R); format: in vivo, Persian speedwell (Veronica persica); conditions: amount of applied herbicide 320 g/ha; foliage application after 14-day growth; evaluated three weeks after application
Outline: as §4

`CSc1ccc(-c2sc3c(C)cccc3c2-c2c(O)c(C)nn(C)c2=O)cc1` [4-118] was tested, and the “Herbicidal effect, A: late watergrass” value (late watergrass) was 3 (Herbicidal rate of 40% or more and less than 70%), the “Herbicidal effect, B: Japanese bulrush” value (Japanese bulrush) was 2 (Herbicidal rate of 20% or more and less than 40%) and the “Herbicidal effect, C: oval-leafed pondweed” value (oval-leafed pondweed) was 2 (Herbicidal rate of 20% or more and less than 40%). For the same compound, the “herbicidal effect on barnyard grass (H)” value (barnyard grass [1]) was 4 (Herbicidal rate of 70% or more and less than 90%), the “herbicidal effect on Chinese sprangletop (D)” value (Chinese sprangletop) was 3 (Herbicidal rate of 40% or more and less than 70%) and the “herbicidal effect on rice flat sedge (E)” value (rice flat sedge) was 4 (Herbicidal rate of 70% or more and less than 90%). For the same compound, the “Herbicidal effect by soil treatment, F: southern crabgrass” value (southern crabgrass [2]) was 0 (Herbicidal rate of 5% or less (almost no effect)), the “Herbicidal effect by soil treatment, G: green foxtail” value (green foxtail [3]) was 0 (Herbicidal rate of 5% or less (almost no effect)) and the “Herbicidal effect by soil treatment, H: barnyard grass” value (barnyard grass [4]) was 0 (Herbicidal rate of 5% or less (almost no effect)). For the same compound, the “Herbicidal effect by soil treatment, I: wild oat” value (wild oat [5]) was 0 (Herbicidal rate of 5% or less (almost no effect)), the “Herbicidal effect by soil treatment, J: blackgrass” value (blackgrass [6]) was 0 (Herbicidal rate of 5% or less (almost no effect)) and the “Herbicidal effect by soil treatment, K: Italian ryegrass” value (Italian ryegrass [7]) was 5 (Herbicidal rate of 90% or more (almost completely withered)). For the same compound, the “Herbicidal effect by soil treatment, L: windgrass” value (windgrass [8]) was 0 (Herbicidal rate of 5% or less (almost no effect)), the “Herbicidal effect by soil treatment, M: velvetleaf” value (velvetleaf [9]) was 3 (Herbicidal rate of 40% or more and less than 70%) and the “Herbicidal effect by soil treatment, N: redroot pigweed” value (redroot pigweed [10]) was 5 (Herbicidal rate of 90% or more (almost completely withered)). For the same compound, the “Herbicidal effect by soil treatment, O: lambsquarters” value (lambsquarters [11]) was 5 (Herbicidal rate of 90% or more (almost completely withered)), the “Herbicidal effect by soil treatment, P: chickweed” value (chickweed [12]) was 4 (Herbicidal rate of 70% or more and less than 90%) and the “Herbicidal effect by soil treatment, R: persian speedwell” value (persian speedwell [13]) was 4 (Herbicidal rate of 70% or more and less than 90%). For the same compound, the “Herbicidal effect by foliage application, F: southern crabgrass” value (southern crabgrass [14]) was 3 (Herbicidal rate of 40% or more and less than 70%), the “Herbicidal effect by foliage application, G: green foxtail” value (green foxtail [15]) was 3 (Herbicidal rate of 40% or more and less than 70%) and the “Herbicidal effect by foliage application, H: barnyard grass” value (barnyard grass [16]) was 3 (Herbicidal rate of 40% or more and less than 70%). The “Herbicidal effect by foliage application, I: wild oat” value (wild oat [17]) was 3 (Herbicidal rate of 40% or more and less than 70%), the “Herbicidal effect by foliage application, J: blackgrass” value (blackgrass [18]) was 5 (Herbicidal rate of 90% or more (almost completely withered)) and the “Herbicidal effect by foliage application, K: Italian ryegrass” value (Italian ryegrass [19]) was 5 (Herbicidal rate of 90% or more (almost completely withered)). For the same compound, the “Herbicidal effect by foliage application, L: windgrass” value (windgrass [20]) was 5 (Herbicidal rate of 90% or more (almost completely withered)), the “Herbicidal effect by foliage application, M: velvetleaf” value (velvetleaf [21]) was 5 (Herbicidal rate of 90% or more (almost completely withered)) and the “Herbicidal effect by foliage application, N: redroot pigweed” value (redroot pigweed [22]) was 5 (Herbicidal rate of 90% or more (almost completely withered)). For the same compound, the “Herbicidal effect by foliage application, O: lambsquarters” value (lambsquarters [23]) was 5 (Herbicidal rate of 90% or more (almost completely withered)), the “Herbicidal effect by foliage application, P: chickweed” value (chickweed [24]) was 5 (Herbicidal rate of 90% or more (almost completely withered)) and the “Herbicidal effect by foliage application, R: persian speedwell” value (persian speedwell [25]) was 5 (Herbicidal rate of 90% or more (almost completely withered)).
